Laboratory results: patent publication US6960614B2, “Oxygenated esters of 4-lodo phenylamino benzhydroxamic acids” (Warner-Lambert Company, priority 2000, dated 2005)

System: MEK
Experiment: Cellular Assay for Measuring MEK Inhibition (inhibition of ERK phosphorylation in C26 cells, Western blot)
Format: cell-based, murine
Conditions: for % Inhibition @ 0.1 μM / % Inhibition @ 1 μM / % Inhibition @ 10 μM: ERK phosphorylation in C26 cells; for IC50: inhibition of ERK phosphorylation in murine colon 26 (C26) carcinoma cells, determined graphically from dose response curve
Description: The evaluation of the compounds as MEK inhibitors was performed in an assay that measures their ability to inhibit phosphorylation of MAP kinase […]) in murine colon 26 (C26) carcinoma cells. Since ERK1 and ERK2 represent the only known substrates for MEK, measurement of inhibition of ERK phosphorylation in cells provides direct readout of cellular MEK inhibition by the compounds of the invention. Briefly, the assay involves treating exponentially growing C26 cells with varying concentrations of the test compound (or vehicle control) for […] at 37° C. Cells are then rinsed free of compound/vehicle and lysed in a solution containing 70 mM NaCl, 50 mM glycerol phosphate, 10 mM HEPES, pH 7.4, 1% Triton X-100, 1 mM Na3VO4, 100 μM PMSF, 10 μM leupeptin and 10 μM pepstatin. Supernatants are then subjected to gel electrophoresis and Western blotting using a primary antibody recognizing dually phosphorylated ERK1 and ERK2. To evaluate total MAPK levels, blots were subsequently ‘stripped’ and re-probed with a 1:1 mixture of polyclonal antibodies recognizing unphosphorylated ERK1 and ERK2.

SMILES | % Inhibition @ 0.1 μM [%] | % Inhibition @ 1 μM [%] | % Inhibition @ 10 μM [%] | IC50 [nM]
CCC(O)CONC(=O)c1ccc(F)c(F)c1Nc1ccc(I)cc1F (centres unmarked) [Example 112, 3,4-Difluoro-2-(2-fluoro-4-iodo-phenylamino)-N-(2-hydroxy-butoxy)-benzamide] | 95.2 | 95.5 | – | –
CCC(O)CONC(=O)c1cc(Br)c(F)c(F)c1Nc1ccc(I)cc1F (centres unmarked) [Example 113, 5-Bromo-3,4-difluoro-2-(2-fluoro-4-iodo-phenylamino)-N-(2-hydroxy-butoxy)-benzamide] | 89.9 | 94.6 | – | –
CCC(O)CONC(=O)c1cc(Cl)c(F)c(F)c1Nc1ccc(I)cc1F (centres unmarked) [Example 114, 5-Chloro-3,4-difluoro-2-(2-fluoro-4-iodo-phenylamino)-N-(2-hydroxy-butoxy)-benzamide] | 90.5 | 97.3 | – | –
CCC(O)CONC(=O)c1cc(F)c(F)cc1Nc1ccc(I)cc1F (centres unmarked) [Example 115, 4,5-Difluoro-2-(2-fluoro-4-iodo-phenylamino)-N-(2-hydroxy-butoxy)-benzamide] | 94.8 | 98.5 | – | –
CCC(O)CONC(=O)c1cc(Cl)c(F)c(F)c1Nc1ccc(F)cc1F (centres unmarked) [Example 116, 5-Chloro-2-(2,4-difluoro-phenylamino)-3,4-difluoro-N-(2-hydroxy-butoxy)-benzamide] | – | 62.8 | 75.8 | –
CCC(O)CONC(=O)c1ccc(F)c(F)c1Nc1ccc(F)cc1F (centres unmarked) [Example 117, 2-(2,4-Difluoro-phenylamino)-3,4-difluoro-N-(2-hydroxy-butoxy)-benzamide] | 0 | 66.7 | 86.9 | –
CCC(O)CONC(=O)c1ccc(F)c(F)c1Nc1ccc(Br)cc1F (centres unmarked) [Example 118, 2-(4-Bromo-2-fluoro-phenylamino)-3,4-difluoro-N-(2-hydroxy-butoxy)-benzamide] | 74.6 | 95.6 | – | –
Cc1cc(I)ccc1Nc1c(C(=O)NOC(C)CO)cc(Cl)c(F)c1F (centres unmarked) [Example 119, 5-Chloro-3,4-difluoro-N-(2-hydroxy-1-methyl-ethoxy)-2-(4-iodo-2-methyl-phenylamino)-benzamide] | 87.4 | 97.9 | – | –
CC(CO)ONC(=O)c1ccc(F)c(F)c1Nc1ccc(I)cc1Cl (centres unmarked) [Example 120, 2-(2-Chloro-4-iodo-phenylamino)-3,4-difluoro-N-(2-hydroxy-1-methyl-ethoxy)-benzamide] | – | – | – | 14
CC(CO)ONC(=O)c1cc(F)c(F)c(F)c1Nc1ccc(I)cc1Cl (centres unmarked) [Example 121, 2-(2-Chloro-4-iodo-phenylamino)-3,4,5-trifluoro-N-(2-hydroxy-1-methyl-ethoxy)-benzamide] | 46.9 | 85.5 | – | –
Cc1cc(I)ccc1Nc1c(C(=O)NOC(C)CO)cc(F)c(F)c1F (centres unmarked) [Example 122, 3,4,5-Trifluoro-N-(2-hydroxy-1-methyl-ethoxy)-2-(4-iodo-2-methyl-phenylamino)-benzamide] | 49.6 | 87.3 | – | –
CC(CO)ONC(=O)c1cc(Br)c(F)c(F)c1Nc1ccc(I)cc1Cl (centres unmarked) [Example 123, 5-Bromo-2-(2-chloro-4-iodo-phenylamino)-3,4-difluoro-N-(2-hydroxy-1-methyl-ethoxy)-benzamide] | – | – | – | 21
Cc1cc(I)ccc1Nc1c(C(=O)NOC(C)CO)cc(Br)c(F)c1F (centres unmarked) [Example 124, 5-Bromo-3,4-difluoro-N-(2-hydroxy-1-methyl-ethoxy)-2-(4-iodo-2-methyl-phenylamino)-benzamide] | 78 | 96.9 | – | –
CC(CO)ONC(=O)c1ccc(F)c(F)c1Nc1ccc(Cl)cc1F (centres unmarked) [Example 125, 2-(4-Chloro-2-fluoro-phenylamino)-3,4-difluoro-N-(2-hydroxy-1-methyl-ethoxy)-benzamide] | 9.1 | 89 | – | –
Cc1cc(I)ccc1Nc1c(C(=O)NOC(C)CO)ccc(F)c1F (centres unmarked) [Example 126, 3,4-Difluoro-N-(2-hydroxy-1-methyl-ethoxy)-2-(4-iodo-2-methyl-phenylamino)-benzamide] | – | – | – | 26
CC(CO)ONC(=O)c1cc(Cl)c(F)c(F)c1Nc1ccc(I)cc1Cl (centres unmarked) [Example 127, 5-Chloro-2-(2-chloro-4-iodo-phenylamino)-3,4-difluoro-N-(2-hydroxy-1-methyl-ethoxy)-benzamide] | – | – | – | 25

SMILES | % Inhibition @ 0.1 μM [%] | % Inhibition @ 1 μM [%] | % Inhibition @ 10 μM [%] | IC50 [nM]
CC(CO)ONC(=O)c1ccc(F)c(F)c1Nc1ccc(I)cc1F (centres unmarked) [Example 128, 3,4-Difluoro-2-(2-fluoro-4-iodo-phenylamino)-N-(2-hydroxy-1-methyl-ethoxy)-benzamide] | – | – | – | 9
CC(CO)ONC(=O)c1cc(Br)c(F)c(F)c1Nc1ccc(I)cc1F (centres unmarked) [Example 129, 5-Bromo-3,4-difluoro-2-(2-fluoro-4-iodo-phenylamino)-N-(2-hydroxy-1-methyl-ethoxy)-benzamide] | 100 | 100 | – | –
CC(CO)ONC(=O)c1cc(Cl)c(F)c(F)c1Nc1ccc(I)cc1F (centres unmarked) [Example 130, 5-Chloro-3,4-difluoro-2-(2-fluoro-4-iodo-phenylamino)-N-(2-hydroxy-1-methyl-ethoxy)-benzamide] | – | – | – | 4
CC(CO)ONC(=O)c1cc(F)c(F)cc1Nc1ccc(I)cc1F (centres unmarked) [Example 131, 4,5-Difluoro-2-(2-fluoro-4-iodo-phenylamino)-N-(2-hydroxy-1-methyl-ethoxy)-benzamide] | 78.7 | 91.3 | – | –
CC(CO)ONC(=O)c1cc(Cl)c(F)c(F)c1Nc1ccc(F)cc1F (centres unmarked) [Example 132, 5-Chloro-2-(2,4-difluoro-phenylamino)-3,4-difluoro-N-(2-hydroxy-1-methyl-ethoxy)-benzamide] | – | 45.7 | 80.6 | –
CC(CO)ONC(=O)c1ccc(F)c(F)c1Nc1ccc(F)cc1F (centres unmarked) [Example 133, 2-(2,4-Difluoro-phenylamino)-3,4-difluoro-N-(2-hydroxy-1-methyl-ethoxy)-benzamide] | 0 | 26.4 | – | –
COCCONC(=O)c1ccc(F)c(F)c1Nc1ccc(I)cc1Cl [Example 134, 2-(2-Chloro-4-iodo-phenylamino)-3,4-difluoro-N-(2-methoxy-ethoxy)-benzamide] | – | – | – | 370
COCCONC(=O)c1cc(F)c(F)c(F)c1Nc1ccc(I)cc1Cl [Example 135, 2-(2-Chloro-4-iodo-phenylamino)-3,4,5-trifluoro-N-(2-methoxy-ethoxy)-benzamide] | 0 | 41.4 | – | –
COCCONC(=O)c1ccc(F)c(F)c1Nc1ccc(I)cc1C [Example 136, 3,4-Difluoro-2-(4-iodo-2-methyl-phenylamino)-N-(2-methoxy-ethoxy)-benzamide] | – | – | – | 250
COCCONC(=O)c1cc(Br)c(F)c(F)c1Nc1ccc(I)cc1C [Example 137, 5-Bromo-3,4-difluoro-2-(4-iodo-2-methyl-phenylamino)-N-(2-methoxy-ethoxy)-benzamide] | – | – | – | 100
COCCONC(=O)c1cc(F)c(F)c(F)c1Nc1ccc(I)cc1C [Example 138, 3,4,5-Trifluoro-2-(4-iodo-2-methyl-phenylamino)-N-(2-methoxy-ethoxy)-benzamide] | 0 | 19.6 | – | –
COCCONC(=O)c1cc(Br)c(F)c(F)c1Nc1ccc(I)cc1Cl [Example 139, 5-Bromo-2-(2-chloro-4-iodo-phenylamino)-3,4-difluoro-N-(2-methoxy-ethoxy)-benzamide] | – | – | – | 360
COCCONC(=O)c1cc(Cl)c(F)c(F)c1Nc1ccc(I)cc1Cl [Example 140, 5-Chloro-2-(2-chloro-4-iodo-phenylamino)-3,4-difluoro-N-(2-methoxy-ethoxy)-benzamide] | – | – | – | 450
COCCONC(=O)c1cc(Cl)c(F)c(F)c1Nc1ccc(I)cc1C [Example 141, 5-Chloro-3,4-difluoro-2-(4-iodo-2-methyl-phenylamino)-N-(2-methoxy-ethoxy)-benzamide] | 38 | 92.7 | – | –
COCCONC(=O)c1cc(Cl)c(F)c(F)c1Nc1ccc(I)cc1F [Example 142, 5-Chloro-3,4-difluoro-2-(2-fluoro-4-iodo-phenylamino)-N-(2-methoxy-ethoxy)-benzamide] | 31 | 91.4 | – | –
O=C(NOCC(O)CN1CCOCC1)c1ccc(F)c(F)c1Nc1ccc(I)cc1Cl (centres unmarked) [Example 143, 2-(2-Chloro-4-iodo-phenylamino)-3,4-difluoro-N-(2-hydroxy-3-morpholin-4-yl-propoxy)-benzamide] | – | – | – | 600
